According to US20050282788A1, “Pharmaceutical compositions comprising silicones and two solubilized active principles” (GALDERMA S.A., priority 2004, published 2005):

Legend:
[1] = Stability of calcitriol in ethanol (HPLC assay against a reference); format: physicochemical; conditions: 30 ppm calcitriol in absolute ethanol, 0.02% BHT
Description: (§1) The stability of calcitriol was tested in various solvents, including ethanol 100 and a 75%/25% ethanol 100/cyclomethicone mixture. a) Stability of Calcitriol in Ethanol: A 30 ppm solution of calcitriol in absolute ethanol to 100% is prepared in the presence of 0.02% of butylated hydroxytoluene (BHT). At the starting time (T0) the calcitriol concentration is taken to be 100%.

[2] = Stability of calcitriol in the (ethanol/cyclopentasiloxane) mixture (HPLC assay against a reference); format: physicochemical; conditions: 30 ppm calcitriol, 0.02% BHT
Description: as §1, with “b)” for “a)”, “the (Ethanol/Cyclopentasiloxane) Mixture” for “Ethanol:”, “BHT.” for “butylated hydroxytoluene (BHT).”, “(TO)” for “(T0)”

calcitriol concentration (T0 taken to be 100%) ([1]; +4° C., T1 week): 97.7% | calcitriol concentration (T0 taken to be 100%) ([1]; +4° C., T2 weeks): 98.6% | calcitriol concentration (T0 taken to be 100%) ([1]; +4° C., T3 weeks): 98.1% | calcitriol concentration (T0 taken to be 100%) ([1]; +4° C., T4 weeks): 97.7% | calcitriol concentration (T0 taken to be 100%) ([1]; +30° C., T2 weeks): 93.4% | calcitriol concentration (T0 taken to be 100%) ([1]; +30° C., T4 weeks): 93.0% | calcitriol concentration (T0 taken to be 100%) ([1]; −18° C., T1 week): 100.9% | calcitriol concentration (T0 taken to be 100%) ([1]; −18° C., T2 weeks): 100.5% | calcitriol concentration (T0 taken to be 100%) ([1]; −18° C., T3 weeks): 99.5% | calcitriol concentration (T0 taken to be 100%) ([1]; −18° C., T4 weeks): 99.5% | calcitriol concentration (T0 taken to be 100%) ([2]; +4° C., T2 weeks): 99.2% | calcitriol concentration (T0 taken to be 100%) ([2]; +4° C., T3 weeks): 99.6% | calcitriol concentration (T0 taken to be 100%) ([2]; +4° C., T4 weeks): 97.5% | calcitriol concentration (T0 taken to be 100%) ([2]; +30° C., T2 weeks): 93.8% | calcitriol concentration (T0 taken to be 100%) ([2]; +30° C., T4 weeks): 93.3% | calcitriol concentration (T0 taken to be 100%) ([2]; −18° C., T2 weeks): 100.4% | calcitriol concentration (T0 taken to be 100%) ([2]; −18° C., T3 weeks): 101.3% | calcitriol concentration (T0 taken to be 100%) ([2]; −18° C., T4 weeks): 99.2%
Structure (SMILES): C=C1/C(=C\C=C2/CCC[C@]3(C)[C@@H]([C@H](C)CCCC(C)(C)O)CC[C@@H]23)C[C@@H](O)C[C@@H]1O [calcitriol]
